System: HBV
Assay: HBV-DNA antiviral assay using HepG2.117 cells
Format: cell-based, genotype D HBV
Conditions: intracellular HBV DNA by qPCR, 3 days incubation
Method: The following assay procedure describes the HBV antiviral assay, using HepG2.117 cells, which carry a stably integrated genotype D HBV genome under the control of a Tet-off promoter, and intracellular HBV DNA quantification as endpoint. Cell viability is assessed in parallel by measuring the intracellular ATP content using ATPlite (Perkin Elmer).
On day 0, HepG2.117 cells (which are maintained in routine cell culture with doxycycline present in the medium at a final concentration of 1 μg/mL) were seeded in 96-well plates (white with clear bottom) at a density of 2.0×10^4 cells/well (0.1 mL/well) in medium without doxycycline to induce pgRNA transcription and subsequent formation of HBV particles. The cells were incubated at 37° C. and 5% CO2.
On day 1, medium was removed from each well, the test articles were diluted in culture medium without doxcycyline and 100 μL was added to cell culture wells (9 concentrations, 4-fold dilution). For each plate, 6 untreated (merely DMSO) wells were included. The final concentration of DMSO in the culture medium was 2%. Each plate was prepared in duplicate (one for HBV DNA extraction, one for ATPlite measurement). The cells were incubated at 37° C. and 5% CO2 for 3 days.
On day 4, cell viability was assessed using ATPlite and cell lysates were prepared for HBV DNA extraction and subsequent quantification by qPCR.
Medium was removed from each well and 100 μL of 0.33% NP-40 in H2O was added to each well. Plates were sealed, incubated at 4° C. for 5 mins, vortexed extensively and centrifuged briefly. Next, 35 μL of lysate was added to 65 μL QuickExtract DNA Extraction Solution (Epicentre) in a PCR plate for each well. PCR plate was incubated at 65° C. for 6 mins, 98° C. for 2 mins and finally cooled to 4° C. HBV DNA was then quantified by qPCR with HBV-specific primers and probes as specified in Table 1 using the Bio-Rad SSOAdvanced Universal Probes Supermix on a CFX96 machine (Bio-Rad). The PCR cycle program consisted of 95° C. for 3 mins, followed by 40 cycles at 95° C. for 10 sec and 60° C. for 30 sec.
A DNA standard was prepared by dilution of an IDT gBlock corresponding to the amplicon with concentrations ranging from 10^2 to 10^8 copies/input (i.e. per 4 μL) and used to generate a standard curve by plotting Cq values vs. HBV DNA standard concentration. The quantity of HBV DNA in each sample was determined by interpolating from the standard curve.
Cell viability was calculated as follows: % Cell viability=(luminescence value of test sample)/(average luminescence value of 2% DMSO control)×100%. HBV DNA inhibition was calculated as follows: 100−(HBV DNA copy number of test sample)/(average HBV DNA copy number of 2% DMSO control)×100%. No normalization to entecavir was required due to the excellent dynamic window of this assay. The CC50, EC50 and EC90 values were determined by dose-response curves fitted by GraphPad Prism using “log (agonist) vs. response—Variable slope”.

| Compound | EC50 [nM] | EC50 (Hepatitis B virus, 72 h) [nM] |
| --- | --- | --- |
| CC(C)NC(=O)c1cnn2c3c(c(=O)n(-c4ccccc4)c12)CCN(C(=O)c1ccc(Cl)c(Cl)c1)C3 [Compound 16, 12-(3,4-dichlorobenzoyl)-N-isopropyl-8-oxo-7-phenyl-2,3,7,12-tetraazatricyclo[7.4.0.0^[2,6]]trideca-1(9),3,5-triene-5-carboxamide] | > 5000 | – |
| CC(C)CC(=O)Nc1cnn2c3c(c(=O)n(-c4ccccc4)c12)CCN(C(=O)c1ccc(Cl)c(Cl)c1)C3 [Compound 17, N-[12-(3,4-dichlorobenzoyl)-8-oxo-7-phenyl-2,3,7,12-tetraazatricyclo[7.4.0.0^[2,6]]trideca-1(9),3,5-trien-5-yl]-3-methylbutanamide] | > 5000 | – |
| O=C(c1ccc(Cl)c(Cl)c1)N1CCc2c(n3ncc(NCc4ccccc4)c3n(-c3ccccc3)c2=O)C1 [Compound 18, 5-(benzylamino)-12-(3,4-dichlorobenzoyl)-7-phenyl-2,3,7,12-tetraazatricyclo[7.4.0.0^[2,6]]trideca-1(9),3,5-trien-8-one] | 500 to 5000 | – |
| CC(C)CNC(=O)c1cnn2c3c(c(=O)n(-c4ccccc4)c12)CCN(C(=O)c1ccc(Cl)c(Cl)c1)C3 [Compound 19, 12-(3,4-dichlorobenzoyl)-N-isobutyl-8-oxo-7-phenyl-2,3,7,12-tetrazatricyclo [7.4.0.0^2,6] trideca-1(9),3,5-triene-5-carboxamide] | – | > 5000 |
| O=C(NCc1ccccc1)c1cnn2c3c(c(=O)n(-c4ccccc4)c12)CCN(C(=O)c1ccc(Cl)c(Cl)c1)C3 [Compound 20, N-benzyl-12-(3,4-dichlorobenzoyl)-8-oxo-7-phenyl-2,3,7,12-tetrazatricyclo [7.4.0.0^2,6] trideca-1(9),3,5-triene-5-carboxamide] | – | > 5000 |
| COc1ccc(-n2c(=O)c3c(n4ncc(NC(C)=O)c24)CN(C(=O)c2ccc(Cl)c(Cl)c2)CC3)cc1 [Compound 21, N-[12-(3,4-dichlorobenzoyl)-7-(4-methoxyphenyl)-8-oxo-2,3,7,12-tetrazatricyclo [7.4.0.0^2,6]trideca-1(9),3,5-trien-5-yl]acetamide] | > 5000 | – |
| COc1ccc(-n2c(=O)c3c(n4ncc(NC(=O)C(C)C)c24)CN(C(=O)c2ccc(Cl)c(Cl)c2)CC3)cc1 [Compound 22, N-[12-(3,4-dichlorobenzoyl)-7-(4-methoxyphenyl)-8-oxo-2,3,7,12-tetrazatricyclo [7.4.0.0^2,6]trideca-1(9),3,5-trien-5-yl]-2-methyl-propanamide] | > 5000 | – |
| COc1ccc(-n2c(=O)c3c(n4ncc(NC(=O)Cc5ccccc5)c24)CN(C(=O)c2ccc(Cl)c(Cl)c2)CC3)cc1 [Compound 23, N-[12-(3,4-dichlorobenzoyl)-7-(4-methoxyphenyl)-8-oxo-2,3,7,12-tetrazatricyclo [7.4.0.0 2,6]trideca-1(9),3,5-trien-5-yl]-2-phenyl-acetamide] | – | 500 to 5000 |
| COc1ccc(-n2c(=O)c3c(n4ncc(Cc5ccccc5)c24)CN(C(=O)c2ccc(Cl)c(Cl)c2)CC3)cc1 [Compound 24, 5-benzyl-12-(3,4-dichlorobenzoyl)-7-(4-methoxyphenyl)-2,3,7,12-tetraazatricyclo[7.4.0.0^[2,6]]trideca-1(9),3,5-trien-8-one] | 100 to 500 | – |
| COc1ccc(-n2c(=O)c3c(n4ncc(NCc5ccccc5)c24)CN(C(=O)c2ccc(Cl)c(Cl)c2)CC3)cc1 [Compound 25, 5-(benzylamino)-12-(3,4-dichlorobenzoyl)-7-(4-methoxyphenyl)-2,3,7,12-tetraazatricyclo[7.4.0.0^[2,6]]trideca-1(9),3,5-trien-8-one] | ≤ 100 | – |
| COc1ccc(-n2c(=O)c3c(n4ncc(NS(C)(=O)=O)c24)CN(C(=O)c2ccc(Cl)c(Cl)c2)CC3)cc1 [Compound 26, N-[12-(3,4-dichlorobenzoyl)-7-(4-methoxyphenyl)-8-oxo-2,3,7,12-tetrazatricyclo [7.4.0.0 2,6]trideca-1(9),3,5-trien-5-yl] methanesulfonamide] | – | 500 to 5000 |
| O=C(c1ccc(Cl)c(Cl)c1)N1CCc2c(n3ncc(Cc4ccccc4)c3n(-c3ccccc3)c2=O)C1 [Compound 27, 5-benzyl-12-(3,4-dichlorobenzoyl)-7-phenyl-2,3,7,12-tetrazatricyclo [7.4.0.0 2,6] trideca-1(9),3,5-trien-8-one] | – | ≤ 100 |
| COc1cccc(-n2c(=O)c3c(n4ncc(NCc5ccccc5)c24)CN(C(=O)c2ccc(Br)c(Cl)c2)CC3)c1 [Compound 28, 5-(benzylamino)-12-(4-bromo-3-chloro-benzoyl)-7-(3-methoxyphenyl)-2,3,7,12-tetrazatricyclo [7.4.0.0 2,6] trideca-1(9),3,5-trien-8-one] | – | 100 to 500 |
| CNC(=O)c1ccc(-n2c(=O)c3c(n4ncc(Cc5ccccc5)c24)CN(C(=O)c2ccc(Br)c(Cl)c2)CC3)cc1 [Compound 29, 4-[5-benzyl-12-(4-bromo-3-chlorobenzoyl)-8-oxo-2,3,7,12-tetraazatricyclo[7.4.0.0^[2,6]]trideca-1(9),3,5-trien-7-yl]-N-methylbenzamide] | ≤ 100 | – |
| COc1ccc(-n2c(=O)c3c(n4ncc(NC(=O)c5ccccc5)c24)CN(C(=O)c2ccc(Br)c(Cl)c2)CC3)cc1 [Compound 30, N-[12-(4-bromo-3-chloro-benzoyl)-7-(4-methoxyphenyl)-8-oxo-2,3,7,12-tetrazatricyclo [7.4.0.0 2,6]trideca-1(9),3,5-trien-5-yl] benzamide] | – | 100 to 500 |
| COc1ccc(-n2c(=O)c3c(n4ncc(NS(=O)(=O)c5ccccc5)c24)CN(C(=O)c2ccc(Br)c(Cl)c2)CC3)cc1 [Compound 31, N-[12-(4-bromo-3-chloro-benzoyl)-7-(4-methoxyphenyl)-8-oxo-2,3,7,12-tetrazatricyclo [7.4.0.0 2,6]trideca-1(9),3,5-trien-5-yl] benzenesulfonamide] | – | ≤ 100 |
| COc1ccc(-n2c(=O)c3c(n4ncc(Nc5ccccc5)c24)CN(C(=O)c2ccc(Br)c(Cl)c2)CC3)cc1 [Compound 32, 12-(4-bromo-3-chlorobenzoyl)-7-(4-methoxyphenyl)-5-(phenylamino)-2,3,7,12-tetraazatricyclo[7.4.0.0^[2,6]]trideca-1(9),3,5-trien-8-one] | ≤ 100 | – |
| COc1ccc(-n2c(=O)c3c(n4ncc(NS(=O)(=O)Cc5ccccc5)c24)CN(C(=O)c2ccc(Br)c(Cl)c2)CC3)cc1 [Compound 33, N-[12-(4-bromo-3-chloro-benzoyl)-7-(4-methoxyphenyl)-8-oxo-2,3,7,12-tetrazatricyclo [7.4.0.0 2,6]trideca-1(9),3,5-trien-5-yl]-1-phenyl-methanesulfonamide] | – | 500 to 5000 |
| CNC(=O)c1ccc(-n2c(=O)c3c(n4ncc(Cc5ccccc5)c24)CN(C(=O)c2ccc(Cl)c(Cl)c2)CC3)cc1 [Compound 34, 4-[5-benzyl-12-(3,4-dichlorobenzoyl)-8-oxo-2,3,7,12-tetrazatricyclo [7.4.0.0 2,6]trideca-1(9),3,5-trien-7-yl]-N-methyl-benzamide] | – | ≤ 100 |
| CNC(=O)c1ccc(-n2c(=O)c3c(n4ncc(Cc5ccc(OC(F)(F)F)cc5)c24)CN(C(=O)c2ccc(Br)c(Cl)c2)CC3)cc1 [Compound 35, 4-[12-(4-bromo-3-chlorobenzoyl)-8-oxo-5-[[4-(trifluoromethoxy)phenyl]methyl]-2,3,7,12-tetraazatricyclo[7.4.0.0^[2,6]]trideca-1(9),3,5-trien-7-yl]-N-methylbenzamide] | ≤ 100 | – |
| CNC(=O)c1ccc(-n2c(=O)c3c(n4ncc(Cc5ccc(OC(F)(F)F)cc5)c24)CN(C(=O)c2ccc(Cl)c(Cl)c2)CC3)cc1 [Compound 36, 4-[12-(3,4-dichlorobenzoyl)-8-oxo-5-[[4-(trifluoromethoxy)phenyl]methyl]-2,3,7,12-tetrazatricyclo [7.4.0.0 2,6]trideca-1(9),3,5-trien-7-yl]-N-methyl-benzamide] | – | 100 to 500 |
| CNC(=O)c1ccc(-n2c(=O)c3c(n4ncc(Cc5ccccc5)c24)CN(C(=O)c2ccc(Br)c(C#N)c2)CC3)cc1 [Compound 37, 4-[5-benzyl-12-(4-bromo-3-cyano-benzoyl)-8-oxo-2,3,7,12-tetrazatricyclo [7.4.0.0 2,6]trideca-1(9),3,5-trien-7-yl]-N-methyl-benzamide] | – | ≤ 100 |
